# Reference: US10590365B2, “Compounds for a controlled release of active molecules” (FIRMENICH SA, priority 2013, dated 2020)
# Experiments:
# [1] = tested on: Propionibacterium acnes ATCC 6919; assay: Incubation of pro-perfume glucuronide mixture with skin bacteria; remaining conjugate by LC-MS; assay type: cell-based; conditions: After 5 days; for Glucuronide-conjugates remaining after incubation with Propionibacterium acnes (in percentage), Average: average of incubations 1-3; for Glucuronide-conjugates remaining after incubation with Propionibacterium acnes (in percentage): blank fixed as 100%
# Procedure: (§1) The liberation of perfuming alcohols from the present invention's compounds of formula (I) was tested in vitro during incubation with defined skin bacteria strains.
# (§2) c) Bacterial solutions: Two underarm bacterial isolates, Propionibacterium acnes ATCC 6919 and Staphylococcus warneri DSM 20316 (identified by 16S rDNA sequencing by Deutsche Sammlung von Mikroorganismen and ZellKulturen DSMZ, Germany), were cultivated on SCH agar at 37° C. during 72 h in anaerobic conditions and on TSA at 37° C. during 24 h, respectively.
# One isolated colony of P. acnes from the pure primary culture on SCH agar was inoculated on a new SCH agar and incubated at 37° C., 72 h in anaerobic conditions. After incubation, the whole culture was dissociated by shaking in 20 ml of NaCl 0.9% then centrifuged 10 min at 5000 rpm at room temperature. The pellet was washed in NaCl 0.9% and concentrated two times in NaCl 0.9%.
# (§3) A pro-perfume glucuronides mixture containing menthol glucuronide (6 mg/kg), phenethylol β-glucuronide (10.75 mg/kg) and raspberry ketone β-glucuronide (13 mg/kg) in water was incubated with either: • 500 μL of the previously described bacterial solution • 10 μL of commercial enzymes β-glucuronidase/arylsulfatase from Helix pomatia (RocheDiagnostic, Indianapolis, USA) and 490 μL of NaCl 0.9% as a positive control • 500 μl of NaCl 0.9% as a negative controlfor the incubation with bacteria.
# (§4) Each solution was prepared in duplicate (in glass vials).
# (§5) The vials were placed in a heating block at 37° C. under gentle stirring from 1 to 7 days depending on the bacteria solutions. At the end of the incubation time, vials were cooled down to room temperature, 150 μL was mixed with 50 μL of LC-MS solvent B, filtered through acrodisc and 1 μL was injected on LC-MS (peak areas considered were measured in SIM mode according to their respective molecular weights). Comparisons were made between glucuronides (HESI−) or glucosides (HESI+) areas in incubated solutions and glucuronides (HESI−) or glucosides (HESI+) areas in the blanks (fixed as 100%).
# [2] = tested on: Staphylococcus warneri DSM 20316; assay: Incubation of pro-perfume conjugates with skin bacteria; remaining conjugate by LC-MS; assay type: cell-based
# Procedure: as §1, §2
# Similarly, one colony of S. warneri from the pure primary culture on TSA was inoculated on a new TSA and incubated for 24 h at 37° C. After incubation, the whole culture was dissociated by shaking in 20 ml of NaCl 0.9% then centrifuged 15 min at 5000 rpm, 4° C. The pellet was washed in NaCl 0.9% and concentrated two times in NaCl 0.9%.
# as §3, §4, §5
# [3] = Table 2, After 1 day, incubation 1
# [4] = Table 2, After 1 day, incubation 2
# [5] = Table 3, After 1 day, incubation 1
# [6] = Table 3, After 1 day, incubation 2
# [7] = Table 3, After 5 day, incubation 1
# [8] = Table 3, After 5 day, incubation 2
Structure (SMILES),"Glucuronide-conjugates remaining after incubation with Propionibacterium acnes (in percentage), Average [1]",Glucuronide-conjugates remaining after incubation with Propionibacterium acnes (in percentage) ([1]; incubation 1),Glucuronide-conjugates remaining after incubation with Propionibacterium acnes (in percentage) ([1]; incubation 2),Glucuronide-conjugates remaining after incubation with Propionibacterium acnes (in percentage) ([1]; incubation 3),"Glucuronide-conjugates remaining after incubation with S. warneri (in percentage), Average ([2]; Table 2, After 1 day)","Glucuronide-conjugates remaining after incubation with S. warneri (in percentage) [2, 3]","Glucuronide-conjugates remaining after incubation with S. warneri (in percentage) [2, 4]","Glucuronide-conjugates remaining after incubation with S. warneri (in percentage), Average ([2]; Table 3, After 1 day)","Glucuronide-conjugates remaining after incubation with S. warneri (in percentage) [2, 5]","Glucuronide-conjugates remaining after incubation with S. warneri (in percentage) [2, 6]","Glucuronide-conjugates remaining after incubation with S. warneri (in percentage), Average ([2]; Table 3, After 5 day)","Glucuronide-conjugates remaining after incubation with S. warneri (in percentage) [2, 7]","Glucuronide-conjugates remaining after incubation with S. warneri (in percentage) [2, 8]"
CC(=O)CCc1ccc(O[C@@H]2O[C@H](C(=O)O)[C@@H](O)[C@H](O)[C@H]2O)cc1 [(4-hydroxyphenyl)-2-butanone-β-D-glucopyranosiduronic acid],58%,61%,58%,57%,0%,0%,0%,,,,,,
COc1cc(C=O)ccc1O[C@@H]1O[C@H](C(=O)O)[C@@H](O)[C@H](O)[C@H]1O [β-D-glucopyranosiduronic acid 4-formyl-2-methoxyphenyl],,,,,,,,100%,84%,96%,0%,0%,0%
C=CCc1ccc(O[C@@H]2O[C@H](C(=O)O)[C@@H](O)[C@H](O)[C@H]2O)c(OC)c1 [β-D-glucopyranosiduronic acid 2-methoxy-4-(2-propen-1-yl)phenyl],,,,,,,,100%,130%,120%,0%,0%,0%
CC1CCC(C(C)C)C(O)C1 (centres unmarked) [menthol],,,,,,,,74%,72%,77%,34%,36%,31%
"CC1CCC(C(C)C)C(OC2O[C@H](C(=O)O)[C@@H](O)[C@H](O)[C@H]2O)C1 (some centres unmarked) [p-menthan-3-ol, glucopyranosiduronic acid 1-menthyl]",7%,5%,9%,7%,0%,1%,0%,,,,,,
